Results on four compounds are retold here after patent publication US10676747B2, “Methods for improving cognitive function via modulation of quinone reductase 2” (Carmel-Haifa University Economic Corp. Ltd., priority 2014, dated 2020).

Molecules are shown by their SMILES.

Assay [1] relates to rats. Briefly: LI-CTA protocol: positive taste memory after QR2 inhibitor injection. The assay is classed as in vivo, rat. The note with it: n=8; for Aversion index (AI): 0.1% saccharin, inhibitor 10 mg/kg i.p. one hour before pre-exposure, choice test three days after LiCl, mean+/-SEM; for AI compared with vehicle-injected groups (CTA and LI-CTA): Fisher's LSD post-hoc test. On the procedure:
(§1) Subjects—Adult male Wistar Hola rats (Harlan Laboratories, Jerusalem) within a weight range of 200-300 gr (corresponding to an age of 8 to 12 weeks) were used for this study. They were maintained on a 12 hour light/dark cycle and all experiments were carried out during the light cycle. Additionally, the rats had ad libtum access to food and water unless otherwise indicated. The procedures were performed in strict accordance with the University of Haifa regulations and the US National Institutes of Health guidelines (NIH publication number 8023).
(§2) The vehicle—In all of the experiments in which we utilized pharmacological agents they were prepared in physiological saline. Physiological saline was prepared in house by dissolving NaCl in DDW (0.9% w/v). The physiological saline was injected to the controls in all experiments in which the test group(s) was injected with a pharmacological agent. The same volume of the vehicle was injected as the pharmacological agent.
(§3) QR2 inhibitors—We used two inhibitors of QR2 activity, S29434 and S26695, obtained from Pharmacolgie Moleculaire et Cellulaire, Institut de Recherches Servier. The inhibitors were dissolved in dimethyl sulfoxide (DMSO) and then added to physiological saline. The final concentration of dimethyl sulfoxide in the physiological saline was 5%. These inhibitors were injected prior to the learning process intraperitoneally (i.p.) 10 mg/kg.
(§4) Aversion index—the aversion index is calculated by the following equation [(total water ingested/(novel taste liquid ingested+water ingested))*100].
Conditioned Taste Aversion (CTA)—Two groups of rats were deprived from water for a period of 24 hours. This was followed by 3 days of restriction were the rats received two pipettes each filled with 10 ml of water for 20 minutes each day. On the fourth day both groups received two pipettes each filled with 10 ml of an unfamiliar tasting liquid, either saccharine (0.1% w/v) or NaCl (0.3% w/v), for 20 minutes. Forty minutes following the exposure to the novel liquid the rats in the experimental group received an injection of LiCl (prepared in double distilled water (DDW)) (2% bodyweight, intraperitoneally (i.p.)) and those in the control received an injection of physiological saline (2% bodyweight, i.p.).
LI-CTA learning paradigm. This paradigm presents the animal with a novel taste. The animal is then given 48 hours during which it will form a memory of the taste and will consider the taste to be a safe taste. The animal will then be presented with the taste again and then injected with LiCl in order to induce malaise. Normally when an animal is presented with a taste and then has malaise induced (CTA) the animal will form a very high aversion to that taste. […]

Assay [2] deals with rats. Briefly: CTA protocol with NaCl: negative taste memory after QR2 inhibitor injection. In kind it is in vivo, rat. The following applies: n=8; for AI compared with vehicle-injected group: CTA with NaCl, Fisher's LSD test; for Aversion index (AI): CTA, 0.5% NaCl, LiCl 0.03M, inhibitor 10 mg/kg i.p. one hour before, mean+/-SEM. On the procedure: as §1, §2, §3, §4
Conditioned Taste Aversion (CTA)—Two groups of rats were deprived from water for a period of 24 hours. This was followed by 3 days of restriction were the rats received two pipettes each filled with 10 ml of water for 20 minutes each day. […] Forty minutes following the exposure to the novel liquid the rats in the experimental group received an injection of LiCl (prepared in double distilled water (DDW)) (2% bodyweight, intraperitoneally (i.p.)) and those in the control received an injection of physiological saline (2% bodyweight, i.p.).
M&M—We used three groups in this experiment, all of which were subjected to three days of water restriction. Following the three day water restriction period one group was injected with the vehicle; one group with S29434; one group with S26695. Then, one hour after the injections, all three groups were subjected to the CTA protocol: we gave them access to two pipettes containing 10 ml of 0.5% w/v NaCl each (a novel taste) for 20 minutes (in this experiment NaCl as the novel taste was used since CTA conducted with NaCl leads to a lower AI which prevents a ceiling effect from occurring and allows us to evaluate if the inhibitors generate an increase in learning and therefore a higher AI). […]

The next assay addresses T1, QR2 (Homo sapiens, UniProt P16083).
T1 sequence (P16083 1-231): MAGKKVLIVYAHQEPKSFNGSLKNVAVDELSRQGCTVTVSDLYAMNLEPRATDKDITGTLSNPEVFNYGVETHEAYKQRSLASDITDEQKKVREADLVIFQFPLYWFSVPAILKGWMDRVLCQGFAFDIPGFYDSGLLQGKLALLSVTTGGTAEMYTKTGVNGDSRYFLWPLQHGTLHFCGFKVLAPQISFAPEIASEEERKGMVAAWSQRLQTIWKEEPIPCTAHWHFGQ
The following applies: literature statement; cited from earlier work.

On to `CNS(=O)(=O)c1ccc2cccc(CCNC(C)=O)c2c1` [S26695, N-[2-(7-methylaminosulfonyl-1-naphthyl)ethyl]acetamide], for which, in the assay with rats [1], the “Aversion index (AI)” value was 68.44+/−4.44; the “AI compared with vehicle-injected groups (CTA and LI-CTA)” value is “significantly lower AI”. In the assay on rats [2], the “AI compared with vehicle-injected group” value is “significantly higher AI” and the “Aversion index (AI)” value is listed as 86.84+/−2.17.
In the case of `Oc1ccc(/C=C/c2cc(O)cc(O)c2)cc1` [resveratrol], the QR2 inhibition result on QR2 is listed as “efficiently inhibits QR2”.
In the case of `COc1ccc2[nH]cc(CCNC(C)=O)c2c1` [Melatonin], the QR2 inhibition entry at QR2 is given as “inhibits QR2 activity”.
On to `COc1ccc2c(n1)c(CCNC(=O)c1ccco1)c1n2Cc2cccnc2-1` [S29434, N-[2-(2-methoxy-6h-dipyrido[2,3-α:3,2-e]pyrrolizin-11-yl)ethyl]-2-furamide], for which, in the assay on rats [1], the “Aversion index (AI)” value is reported as 56.16+/−6.15; the “AI compared with vehicle-injected groups (CTA and LI-CTA)” value is “significantly lower AI”. Moreover, in the assay on rats [2], the “AI compared with vehicle-injected group” value is reported as “significantly higher AI” and the Aversion index (AI) amounted to 92%.
